# Laboratory results: PMC7944402, “Resin-acid derivatives bind to multiple sites on the voltage-sensor domain of the Shaker potassium channel” (The Journal of General Physiology, 2021)
# Several values for one entry are separate records, joined by “and”; a condition that tells them apart may be missing. Equal values may be shown once.
# Columns and labels:
# [1] = target: T1, Shaker KV channel R362Q/W454A/F416A (Drosophila melanogaster, UniProt P08510, DEL6-46/F416A/R362Q/W454A); assay: Two-electrode voltage clamp in Xenopus oocytes: R362Q/W454A/F416A; assay type: cell-based; details: 100 μM
# T1 construct: expressed in transfected cells; host or cells: Xenopus laevis oocytes (RNA injection)
# T1 sequence (P08510 other isoform, or with tags, fused parts or gaps DEL6-46/R362Q/F416A/W454A): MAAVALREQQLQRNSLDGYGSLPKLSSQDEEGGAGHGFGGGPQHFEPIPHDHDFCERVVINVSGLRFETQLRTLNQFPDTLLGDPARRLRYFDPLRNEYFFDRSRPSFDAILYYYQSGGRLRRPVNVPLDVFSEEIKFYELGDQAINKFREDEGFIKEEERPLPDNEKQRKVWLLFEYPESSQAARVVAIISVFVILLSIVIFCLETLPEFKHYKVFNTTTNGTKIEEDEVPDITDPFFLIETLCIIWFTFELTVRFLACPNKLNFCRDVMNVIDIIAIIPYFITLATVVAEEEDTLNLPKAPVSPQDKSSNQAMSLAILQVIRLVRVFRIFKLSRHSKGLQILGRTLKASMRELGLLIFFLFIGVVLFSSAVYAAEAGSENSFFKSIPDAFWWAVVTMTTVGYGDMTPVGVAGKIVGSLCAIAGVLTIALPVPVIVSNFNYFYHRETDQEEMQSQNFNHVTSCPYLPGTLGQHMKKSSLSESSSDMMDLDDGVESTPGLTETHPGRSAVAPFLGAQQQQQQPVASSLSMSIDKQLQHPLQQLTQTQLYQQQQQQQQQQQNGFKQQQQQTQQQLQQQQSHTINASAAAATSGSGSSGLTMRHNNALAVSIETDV
# Excerpt: (§1) The Shaker H4 channel (GenBank accession no. NM_167595.3; [Kamb et al., 1987]), with removed N-type inactivation due to a Δ6-46 deletion (ShH4IR, in Bluescript II KS(+) plasmid; [Hoshi et al., 1990]), is referred to as the WT Shaker KV channel. Addition of two positively charged arginines (M356R/A359R) at the extracellular top of the voltage sensor increases the effect of charged lipophilic compounds ([Ottosson et al., 2014], [2015], [2017]). […] However, for the resin-acid derivatives studied in the present investigation, R362 reduced the effect. Therefore, we specifically refer to the two added arginines just outside S4 (M356R/A359R) as the 2R motif. Mutations were introduced with site-directed mutagenesis and verified with sequencing as described previously ([Börjesson et al., 2010]). RNA injection and oocyte handling were performed as before ([Börjesson et al., 2010]; [Ottosson et al., 2015]). All animal experiments were approved by the Linköping’s local Animal Care and Use Committee.
# (§2) Electrophysiological experiments were made 1–6 d after RNA injection. K^+ currents were measured with the two-electrode voltage-clamp technique (GeneClamp 500B amplifier; Axon Instruments) as described previously ([Ottosson et al., 2015]; [Silverå Ejneby et al., 2018]). […]
# (§3) The conductance, G(V), was calculated as G(V)=I/(V−VK), (1) where I is the steady-state current measured at the end of each test-voltage sweep (100 ms after onset; Clampfit 10.5; Molecular Devices), V is the absolute membrane voltage, and VK is the reversal potential for K^+ ions (set to −80 mV). […] The resin-acid–induced G(V) shift was calculated as V1/2 (compound) − V1/2 (control). The relative change in GMAX was calculated as GMAX (compound) / GMAX (control). The concentration dependence for the G(V) shifts was calculated as ΔV= ΔVMAX/(1 +EC50/c), (3) where ΔV is the voltage shift, ΔVMAX is the voltage shift at saturating concentration, c is the concentration of the tested compound, and EC50 is the concentration at which half-maximum response occurs.
# [2] = tested on: Shaker KV channel binding sites (S3/S4, S4/pore, residual); assay: Additive model of site contributions to the G(V) shift (least squares fit); parameters: species or system Drosophila melanogaster
# Excerpt: We also considered a reduced dataset of five mutants for Wu50 to make the comparison between the two compounds equitable (Table S1).
# The G(V) shift for each mutant was expressed as a sum of contribution from the various sites: ΔVmodel=ΔVS3/S4+ΔVS4/pore+ΔVResidual, (4) where ΔVS3/S4 is the G(V) shift due to compound binding to the S3/S4 site, ΔVS4/pore is the G(V) shift due to compound binding to the S4/pore site, and ΔVResidual is the G(V) shift due to compound binding to other sites, including the top-VSD site.
# Following the assumptions based on observations made using MD simulations, ΔVS3/S4 was set to 0 if the 2R motif was missing (i.e., in the WT channel), ΔVS4/pore could adopt one of four values depending on the type of mutation (R362/W454 = WT configuration, R362Q, W454A, or R362Q/W454A), and ΔVResidual was assumed to be the same for all mutants.
# The model further assumed that there is a residual effect that can be due to binding to the VSD-top site or to any other unidentified site and that the contributions due to binding to the S3/S4 site and the S4/pore site depend upon mutations at this site.
# [3] = target: T2, Shaker KV channel R362Q (Drosophila melanogaster, UniProt P08510, DEL6-46/R362Q); assay: Two-electrode voltage clamp in Xenopus oocytes: R362Q; assay type: cell-based; details: 100 μM, pH 9.0, R362Q
# T2 construct: expressed in transfected cells; host or cells: Xenopus laevis oocytes (RNA injection)
# T2 sequence (P08510 other isoform, or with tags, fused parts or gaps DEL6-46/R362Q): as the sequence (P08510 other isoform, or with tags, fused parts or gaps DEL6-46/R362Q/F416A/W454A) above, with A375F, A413W counted along it
# Excerpt: as §1, §2, §3
# [4] = target: T3, Shaker KV channel R362Q/R365Q (Drosophila melanogaster, UniProt P08510, DEL6-46/R362Q/R365Q); assay: Two-electrode voltage clamp in Xenopus oocytes: R362Q/R365Q; assay type: cell-based; details: 100 μM, pH 9.0, R362Q/R365Q
# T3 construct: expressed in transfected cells; host or cells: Xenopus laevis oocytes (RNA injection)
# T3 sequence (P08510 other isoform, or with tags, fused parts or gaps DEL6-46/R362Q/R365Q): as the sequence (P08510 other isoform, or with tags, fused parts or gaps DEL6-46/R362Q/F416A/W454A) above, with R324Q, A375F, A413W counted along it
# Excerpt: as §1, §2, §3
# [5] = target: T4, Shaker KV channel M356R/A359R/R362Q/W454A (Drosophila melanogaster, UniProt P08510, A359R/DEL6-46/M356R/R362Q/W454A); assay: Two-electrode voltage clamp in Xenopus oocytes: 2R motif/R362Q/W454A; assay type: cell-based; details: 100 μM, pH 9.0, M356R/A359R/R362Q/W454A
# T4 construct: expressed in transfected cells; host or cells: Xenopus laevis oocytes (RNA injection)
# T4 sequence (P08510 with tags, fused parts or gaps DEL6-46/M356R/A359R/R362Q/W454A): as the sequence (P08510 other isoform, or with tags, fused parts or gaps DEL6-46/R362Q/F416A/W454A) above, with M315R, A318R, A375F counted along it
# Excerpt: as §1, with “Mutations were introduced with site-directed mutagenesis and verified with sequencing as described previously ([Börjesson et al., 2010]). RNA injection and oocyte handling were performed as before ([Börjesson et al., 2010]; [Ottosson et al., 2015]). All animal experiments were approved by the Linköping’s local Animal Care and Use Committee.” left out
# as §2
# (§4) The conductance, G(V), was calculated as G(V)=I/(V−VK), (1) where I is the steady-state current measured at the end of each test-voltage sweep (100 ms after onset; Clampfit 10.5; Molecular Devices), V is the absolute membrane voltage, and VK is the reversal potential for K^+ ions (set to −80 mV). […] The resin-acid–induced G(V) shift was calculated as V1/2 (compound) − V1/2 (control). The relative change in GMAX was calculated as GMAX (compound) / GMAX (control). […]
# [6] = target: T5, Shaker KV channel R362Q/W454A (Drosophila melanogaster, UniProt P08510, DEL6-46/R362Q/W454A); assay: Two-electrode voltage clamp in Xenopus oocytes: R362Q/W454A; assay type: cell-based; details: 100 μM, pH 9.0, R362Q/W454A
# T5 construct: expressed in transfected cells; host or cells: Xenopus laevis oocytes (RNA injection)
# T5 sequence (P08510 with tags, fused parts or gaps DEL6-46/R362Q/W454A): as the sequence (P08510 other isoform, or with tags, fused parts or gaps DEL6-46/R362Q/F416A/W454A) above, with A375F counted along it
# Excerpt: as §1, with “Mutations were introduced with site-directed mutagenesis and verified with sequencing as described previously ([Börjesson et al., 2010]). RNA injection and oocyte handling were performed as before ([Börjesson et al., 2010]; [Ottosson et al., 2015]). All animal experiments were approved by the Linköping’s local Animal Care and Use Committee.” left out
# as §2, §4
# [7] = target: T6, Shaker KV channel M356R/A359R/W454A (Drosophila melanogaster, UniProt P08510, A359R/DEL6-46/M356R/W454A); assay: Two-electrode voltage clamp in Xenopus oocytes: 2R motif/W454A; assay type: cell-based
# T6 construct: expressed in transfected cells; host or cells: Xenopus laevis oocytes (RNA injection)
# T6 sequence (P08510 with tags, fused parts or gaps DEL6-46/M356R/A359R/W454A): as the sequence (P08510 other isoform, or with tags, fused parts or gaps DEL6-46/R362Q/F416A/W454A) above, with M315R, A318R, Q321R, A375F counted along it
# Excerpt: as §1
# Electrophysiological experiments were made 1–6 d after RNA injection. K^+ currents were measured with the two-electrode voltage-clamp technique (GeneClamp 500B amplifier; Axon Instruments) as described previously ([Ottosson et al., 2015]; [Silverå Ejneby et al., 2018]). The amplifier’s leak compensation was used, and the currents were low-pass filtered at 5 kHz. The control solution contained (in mM) 88 NaCl, 1 KCl, 15 HEPES, 0.4 CaCl2, and 0.8 MgCl2, and pH was set with NaOH. All experiments were made at room temperature (20°C–23°C). The holding potential was set to −80 mV (or −100 mV if the mutant was not fully closed at −80 mV).
# Stock solutions were stored at −20°C and diluted in control solution just before experiments. The test solution was added to the oocyte bath manually with a syringe. […] To make sure all Wu50 molecules were negatively charged, the pH of the control solution was set to 9.0 before the experiments. This pH change had only small effects on channel kinetics and the G(V) relation.
# as §3
# [8] = 100 μM, pH 9.0, M356R/A359R/W454A
smiles,measurement,setting,value
C[C@@]1(C(=O)O)CCC[C@]2(C)c3cc(Cl)c(Cl)c(Cl)c3CC[C@@H]12 [Wu50],GMAX (rel.),"[1]; pH 9.0, R362Q/W454A/F416A",0.17 rel.
same,Reduction of GMAX,"[1]; R362Q/W454A/F416A, pH 9.0",83%
same,ΔVS3/S4 (contribution of the S3/S4 site in the presence of the 2R mutations),[2]; eight mutants,−17 mV
same,"ΔVS4/pore, R362Q configuration",[2]; eight mutants,−34 mV
same,"ΔVS4/pore, R362Q/W454A configuration",[2]; eight mutants,−31 mV
same,"ΔVS4/pore, WT S4/pore site",[2]; eight mutants,−15 mV
same,ΔVS3/S4 (contribution of the S3/S4 site in the presence of the 2R mutations),[2]; five mutants,−10 mV
same,"ΔVS4/pore, R362Q configuration",[2]; five mutants,−37 mV
same,"ΔVS4/pore, WT S4/pore site",[2]; five mutants,−18 mV
same,ΔVResidual (contribution of other sites to the G(V) shift),[2]; five mutants (Wu50 constrained to be the same as for eight mutants),−10 mV
same,"ΔVS4/pore, W454A configuration",[2]; no clear difference between five-mutants and eight-mutants datasets,+2 to −6 mV
same,GMAX (rel.),[3],1.25 rel.
same,ΔVG(V) (G(V) shift),[3],−49.6 ± 1.2 mV and -49.6 mV
same,GMAX (rel.),[4],0.55 rel.
same,ΔVG(V) (G(V) shift),[4],−25.5 ± 4.6 mV and -25.5 mV
same,GMAX (rel.),[5],1.50 rel.
same,ΔVG(V) (G(V) shift),[5],−56.6 ± 5.8 mV and -56.6 mV
same,GMAX (rel.),[6],1.28 rel.
same,ΔVG(V) (G(V) shift),[6],−41.0 ± 4.4 mV and -41.0 mV
same,EC50,[7],27.9 ± 9.2 µM
same,GMAX (rel.),[7]; [8],1.28 rel.
same,ΔVG(V) (G(V) shift),[7]; [8],-39.6 mV
same,ΔVMAX (maximum G(V) shift),"[7]; 2R motif/W454A, pH 9.0, concentration-response",−62.3 ± 6.5 mV
